Patent US7935700B2, “Morpholine compound” (Mitsubishi Tanabe Pharma Corporation, priority 2004, dated 2011)
Counter-ions that a name gives are not always drawn. Like-named read-outs stand apart in the source and are kept apart here.

Experiments:
[1] = biological target: T1, CCR3 (Homo sapiens, UniProt P51677); test: Effect on intracellular calcium concentration in eosinophils upon CCL11 stimulation; format: cell-based; conditions: peripheral blood eosinophils of healthy subject, agonist CCL11 1.0 nmol/L, compound 3 min before stimulation, Fura-2 AM; read-out: IC50 (50% suppression of the increase in the intracellular calcium concentration)
T1 construct: Eosinophils separated from peripheral blood of healthy subject; endogenous in cells; host or cells: eosinophils separated from peripheral blood of healthy subject
T1 sequence (P51677 1-355): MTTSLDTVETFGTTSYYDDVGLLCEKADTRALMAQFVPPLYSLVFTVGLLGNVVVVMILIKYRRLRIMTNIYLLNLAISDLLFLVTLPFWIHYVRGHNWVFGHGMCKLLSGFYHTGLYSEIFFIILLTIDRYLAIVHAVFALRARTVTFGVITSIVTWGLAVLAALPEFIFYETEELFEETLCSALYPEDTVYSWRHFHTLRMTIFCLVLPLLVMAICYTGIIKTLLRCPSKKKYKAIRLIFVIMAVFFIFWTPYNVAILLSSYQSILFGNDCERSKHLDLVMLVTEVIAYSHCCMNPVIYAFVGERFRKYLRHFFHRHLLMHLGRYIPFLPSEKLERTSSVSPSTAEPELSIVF
Description: Effect on Intracellular Calcium Concentration
The effect of the compound of the present invention on intracellular calcium mobilization in peripheral blood eosinophils of healthy subject upon CCL11 stimulation was examined by the following method.
Eosinophils separated from peripheral blood of healthy subject were suspended in 0.5% bovine serum albumin-containing phosphate buffered saline, and incubated at 37° C. for 45 min in the presence of 5 μmol/L of Fura-2 AM (manufactured by DOJINDO LABORATORIES).
After incubation, the cells were washed 3 times with a measurement buffer (10 mmol/L HEPES, and 0.5% bovine serum albumin-containing hanks' balanced salt solution) to remove Fura-2 AM that was not incorporated into the cells.
Finally, the cells were adjusted to 1×10^6 cells/mL with the measurement buffer and preserved in a dark place until measurement. The intracellular calcium was measured using FDSS3000 manufactured by Hamamatsu Photonics K.K. In other words, the cell suspension (0.1 mL) loaded with Fura-2 AM was placed in a 96 well plate for measurement, the fluorescence intensity to the excitation light at wavelengths 340 nm and 380 nm was measured by FDSS3000, the ratio of the fluorescence intensity to the excitation light at these two wavelengths was determined, based on which the intracellular calcium concentration was calculated. As the agonist, used was CCL11 (1.0 nmol/L), which is a CCR3 selective ligand, and the antagonistic activity was determined as 50% suppression rate (IC50 value) of the increase in the intracellular calcium concentration, when eosinophils were treated with various concentrations of the compound of the present invention at 3 min before agonist stimulation.

[2] = tested on: mouse ovalbumin (OVA) induced allergic and biphasic ear edema; test: Antigen (OVA) induced allergic and biphasic ear edema model; format: in vivo; conditions: male BALB/c mice, oral once a day from 2 days before induction, 3 or 10 mg/kg tested
Description: 3: Effect on Antigen Induced Allergic and Biphasic Ear Edema Model
The in vivo effect of the compound of the present invention was examined using a mouse ovalbumin (OVA) induced allergic and biphasic ear edema model. The model was prepared according to the method of Sugawara et al. (Allergy & Clinical Immunology International, Supplement No. 2, P 785, 2000). In other words, male BALB/c mice were immunized by intraperitoneal injection with 10 μg of OVA and 1 mg of aluminum hydroxide gel (Alum). At 14 days after immunization, OVA (5 μg) were subcutaneously injected to the both ears of the mouse, whereby ear edema was induced. The thickness of the ears was measured using a dial sickness gauge immediately before subcutaneous injection and 1 and 24 hrs after subcutaneous injection of OVA. The compound of the present invention was suspended in a vehicle, 0.5% hydroxypropylmethyl cellulose solution, and orally administered at 3 mg/kg or 10 mg/kg once a day using an orally gavage needle from 2 days before ear edema induction.

[3] = ear thickness 1 hr after OVA, read-out: Dose that showed a significant suppressive action vs vehicle, Immediate phase
[4] = ear thickness 24 hrs after OVA, read-out: Dose that showed a significant suppressive action vs vehicle, Late phase

Row | IC50 [1] | Compound | minimal effective dose [2, 3] | minimal effective dose [2, 4]
1 | 2 nM | NC(=O)CNC(=O)c1ccc(SCC(=O)NC[C@H]2CN(Cc3ccc(Cl)c(Cl)c3)CCO2)cc1 [Example 40, (2S)-{4-[(2-amino-2-oxoethyl)aminocarbonyl]phenylthio}-N-{[4-(3,4-dichlorobenzyl)morpholin-2-yl]methyl}acetamide] | 3 mg/kg | 3 mg/kg
2 | 3.1 nM | O=C(O)CCNC(=O)c1csc(SCC(=O)NC[C@H]2CN(Cc3ccc(Cl)c(Cl)c3)CCO2)n1 [Example 46, (2S)-{4-[(2-carboxyethyl)aminocarbonyl]thiazol-2-ylthio}-N-{[4-(3,4-dichlorobenzyl)morpholin-2-yl]methyl}acetamide hydrochloride] | 10 mg/kg | 10 mg/kg
3 | 5.3 nM | CC(=O)Nc1nnc(SCC(=O)NC[C@H]2CN(Cc3ccc(Cl)c(Cl)c3)CCO2)s1 [Example 53, (2S)-(5-acetamino-1,3,4-thiadiazol-2-ylthio)-N-{[4-(3,4-dichlorobenzyl)morpholin-2-yl]methyl}acetamide] | 3 mg/kg | 3 mg/kg
4 | 1.1 nM | NC(=O)c1csc(SCCCC(=O)NC[C@H]2CN(Cc3ccc(Cl)c(Cl)c3)CCO2)n1 [Example 55, (2S)-4-(4-carbamoylthiazol-2-ylthio)-N-{[4-(3,4-dichlorobenzyl)morpholin-2-yl]methyl}butyramide hydrochloride] | – | –
5 | 2.1 nM | O=C(CSc1nc(-c2nnn[nH]2)cs1)NC[C@H]1CN(Cc2ccc(Cl)c(Cl)c2)CCO1 [Example 59, (2S)-N-{[4-(3,4-dichlorobenzyl)morpholin-2-yl]methyl}-[4-(1H-tetrazol-5-yl)thiazol-2-ylthio]acetamide] | – | –
6 | 0.3 nM | O=C(CSc1nc2cccnc2s1)NC[C@H]1CN(Cc2ccc(Cl)c(Cl)c2)CCO1 [Example 64, (2S)-N-{[4-(3,4-dichlorobenzyl)morpholin-2-yl]methyl}-([1,3]thiazolo[5,4-b]pyridin-2-ylthio)acetamide] | 10 mg/kg | 3 mg/kg
7 | 0.5 nM | NC(=O)/C=C/c1csc(SCC(=O)NC[C@H]2CN(Cc3ccc(Cl)c(Cl)c3)CCO2)n1 [Example 71, (2S)-(E)-[4-(2-carbamoylethen-1-yl)thiazol-2-ylthio]-N-{[4-(3,4-dichlorobenzyl)morpholin-2-yl]methyl}acetamide] | – | –
8 | 0.9 nM | NC(=O)Cc1csc(SCC(=O)NC[C@H]2CN(Cc3ccc(F)c(F)c3)CCO2)n1 [Example 79, (2S)-[4-(carbamoylmethyl)thiazol-2-ylthio]-N-{[4-(3,4-difluorobenzyl)morpholin-2-yl]methyl}acetamide] | – | –
9 | 2.5 nM | NC(=O)Cc1csc(SCC(=O)NC[C@H]2CN(Cc3ccc(F)cc3)CCO2)n1 [Example 107, (2S)-[4-(carbamoylmethyl)thiazol-2-ylthio]-N-{[4-(4-fluorobenzyl)morpholin-2-yl]methyl}acetamide] | – | –
10 | 22.3 nM | Cc1sc(SCC(=O)NC[C@H]2CN(Cc3ccc(Cl)c(Cl)c3)CCO2)nc1C(=O)O [Example 109, (2S)-(4-carboxy-5-methylthiazol-2-ylthio)-N-{[4-(3,4-dichlorobenzyl)morpholin-2-yl]methyl}acetamide] | – | –
11 | 1.5 nM | Cc1sc(SCC(=O)NC[C@H]2CN(Cc3ccc(Cl)c(Cl)c3)CCO2)nc1C(N)=O [Example 110, (2S)-(4-carbamoyl-5-methylthiazol-2-ylthio)-N-{[4-(3,4-dichlorobenzyl)morpholin-2-yl]methyl}acetamide] | – | –
12 | 0.9 nM | NC(=O)c1csc(SCC(=O)NC[C@H]2CN(Cc3ccc(F)c(Cl)c3)CCO2)n1 [Example 112, (2S)-(4-carbamoylthiazol-2-ylthio)-N-{[4-(3-chloro-4-fluorobenzyl)morpholin-2-yl]methyl}acetamide] | – | –
13 | 2.6 nM | NC(=O)CNC(=O)c1csc(SCC(=O)NC[C@H]2CN(Cc3ccc(F)c(F)c3)CCO2)n1 [Example 115, (2S)-[4-(2-amino-2-oxoethyl)aminocarbonylthiazol-2-ylthio]-N-{[4-(3,4-difluorobenzyl)morpholin-2-yl]methyl}acetamide] | – | –
14 | 2.6 nM | Nc1nnc(SCC(=O)NC[C@H]2CN(Cc3cccc(Cl)c3)CCO2)s1 [Example 123, (2S)-(5-amino-1,3,4-thiadiazol-2-ylthio)-N-{[4-(3-chlorobenzyl)morpholin-2-yl]methyl}acetamide] | 10 mg/kg | 10 mg/kg
15 | 3.6 nM | Nc1nnc(SCC(=O)NC[C@H]2CN(Cc3ccc(F)c(F)c3)CCO2)s1 [Example 125, (2S)-(5-amino-1,3,4-thiadiazol-2-ylthio)-N-{[4-(3,4-difluorobenzyl)morpholin-2-yl]methyl}acetamide] | 10 mg/kg | 3 mg/kg
16 | 2.5 nM | O=C(CSc1ncccn1)NC[C@H]1CN(Cc2ccc(Cl)c(Cl)c2)CCO1 [Example 146, (2S)-N-{[4-(3,4-dichlorobenzyl)morpholin-2-yl]methyl}-(pyrimidin-2-ylthio)acetamide] | 3 mg/kg | 3 mg/kg
17 | 16.2 nM | CC(=O)c1cc2cc(SCC(=O)NC[C@H]3CN(Cc4ccc(Cl)c(Cl)c4)CCO3)ccc2oc1=O [Example 174, (2S)-(3-acetyl-2-oxo-2H-chromen-6-ylthio)-N-{[4-(3,4-dichlorobenzyl)morpholin-2-yl]methyl}acetamide] | – | –
18 | 3.9 nM | O=C(CSc1ccc(=O)[nH]n1)NC[C@H]1CN(Cc2ccc(F)c(F)c2)CCO1 [Example 198, (2S)-N-{[4-(3,4-difluorobenzyl)morpholin-2-yl]methyl}-(6-oxo-1,6-dihydropyridazin-3-ylthio)acetamide] | 10 mg/kg | 10 mg/kg
19 | 2.4 nM | NC(=O)c1cncc(SCC(=O)NC[C@H]2CN(Cc3ccc(Cl)c(Cl)c3)CCO2)c1 [Example 207, (2S)-(3-carbamoylpyridin-5-ylthio)-N-{[4-(3,4-dichlorobenzyl)morpholin-2-yl]methyl}acetamide] | – | –
20 | 0.1 nM | NC(=O)Cc1cncc(SCC(=O)NC[C@H]2CN(Cc3ccc(Cl)c(Cl)c3)CCO2)n1 [Example 223, (2S)-[6-(carbamoylmethyl)pyrazin-2-ylthio]-N-{[4-(3,4-dichlorobenzyl)morpholin-2-yl]methyl}acetamide] | – | –
21 | 38.5 nM | O=C(CCCS(=O)(=O)C1CCCC1)NC[C@H]1CN(Cc2ccc(F)c(Cl)c2)CCO1 [Example 232, (2S)-4-(cyclopentanesulfonyl)-N-{[4-(3-chloro-4-fluorobenzyl)morpholin-2-yl]methyl}butyramide] | – | –
